Test [1] addresses T1, D-2 receptor (Rattus norvegicus, UniProt P61169).
T1 construct: 90 µL of the striatal membrane preparation; from tissue; host or cells: rat striatum (membrane preparation)
As to the kind of experiment: Displacement of [125I](S)-II binding to rat striatal membranes (receptor binding assay). Conditions: radioligand concentration 0.46 nM, nonspecific binding in the presence of 10 µM of (S)-II, 30 min at 37°C, read-out: [¹²⁵I]-(S) II binding IC₅₀. How it is done: Lett. 64:163-168 (1986). […] Male Sprague-Dawley rats (150-200 g) were killed by decapitation and their brains quickly removed and dissected on ice. Striata were dissected and homogenized in 40 vol of ice-cold Tris-HCl (50 mM) containing 123 mM NaCl, 5 mM KCl, 2 mM CaCl₂ and 1 mM MgCl₂ (pH 7.4) using a Brinkman Polytron. The suspension was centrifuged at 30,000 x g for 10 min at 4°C, and the pellet was resuspended in 40 vol of fresh buffer with polytron. The suspension was incubated at 37°C for 10 min, centrifuged again at 30,000 x g for 10 min (4°C) and the final pellet was resuspended with the polytron in 200 vol of ice cold buffer. […] Nonspecific binding was determined in the presence of 10 µM[…]. Tubes were incubated for 30 min at 37°C, poured over Whatman GF/B filters under vacuum, and the filters were rinsed three times with 4 mL of ice cold buffer. Radioactivity remaining on the filters was measured by liquid scintillation on a Quantum 9 Multichannel analyzer operating at 35% efficiency.

Test [2] has as its target T1, D-2 receptor. As to the kind of experiment: Displacement of [3H]sulpiride binding to rat striatal membranes (receptor binding assay). Conditions: read-out: [³H]sulpiride binding IC₅₀, radioligand concentration 2.9 nM, nonspecific binding in the presence of 10 µM sulpiride, 30 min at 37°C. As for the experimental part: Lett. 64:163-168 (1986). […] Male Sprague-Dawley rats (150-200 g) were killed by decapitation and their brains quickly removed and dissected on ice. Striata were dissected and homogenized in 40 vol of ice-cold Tris-HCl (50 mM) containing 123 mM NaCl, 5 mM KCl, 2 mM CaCl₂ and 1 mM MgCl₂ (pH 7.4) using a Brinkman Polytron. The suspension was centrifuged at 30,000 x g for 10 min at 4°C, and the pellet was resuspended in 40 vol of fresh buffer with polytron. The suspension was incubated at 37°C for 10 min, centrifuged again at 30,000 x g for 10 min (4°C) and the final pellet was resuspended with the polytron in 200 vol of ice cold buffer. Assay tubes contained […] or radioligand at 2.9 nM concentration and 90 µL of the striatal membrane preparation. Nonspecific binding was determined in the presence of 10 µM(-)[¹²⁵I](S)-II. Tubes were incubated for 30 min at 37°C, poured over Whatman GF/B filters under vacuum, and the filters were rinsed three times with 4 mL of ice cold buffer. Radioactivity remaining on the filters was measured by liquid scintillation on a Quantum 9 Multichannel analyzer operating at 35% efficiency.
Background: In a radioligand displacement assay an active substance lowers the binding of a labelled ligand.

The target of test [3] is T1, D-2 receptor. Kind of test: Saturation binding of [125I](S)-II to rat striatal membranes (Scatchard analysis, time course). As for the experimental part:
Male Sprague-Dawley rats (150-200 g) were killed by decapitation and their brains quickly removed and dissected on ice. Striata were dissected and homogenized in 40 vol of ice-cold Tris-HCl (50 mM) containing 123 mM NaCl, 5 mM KCl, 2 mM CaCl₂ and 1 mM MgCl₂ (pH 7.4) using a Brinkman Polytron. The suspension was centrifuged at 30,000 x g for 10 min at 4°C, and the pellet was resuspended in 40 vol of fresh buffer with polytron. The suspension was incubated at 37°C for 10 min, centrifuged again at 30,000 x g for 10 min (4°C) and the final pellet was resuspended with the polytron in 200 vol of ice cold buffer. Assay tubes contained […] or radioligand at 2.9 nM concentration and 90 µL of the striatal membrane preparation. Nonspecific binding was determined in the presence of 10 µM(-)[¹²⁵I](S)-II. Tubes were incubated for 30 min at 37°C, poured over Whatman GF/B filters under vacuum, and the filters were rinsed three times with 4 mL of ice cold buffer. Radioactivity remaining on the filters was measured by liquid scintillation on a Quantum 9 Multichannel analyzer operating at 35% efficiency. […]

[4] abbreviates: at 37°C, rat striatal membranes.

SMILES strings stand for the structures.

Usually Kd stands for the constant that tells how readily two partners part at equilibrium. Read a low Kd as higher affinity.

T1 sequence (P61169 whole entry): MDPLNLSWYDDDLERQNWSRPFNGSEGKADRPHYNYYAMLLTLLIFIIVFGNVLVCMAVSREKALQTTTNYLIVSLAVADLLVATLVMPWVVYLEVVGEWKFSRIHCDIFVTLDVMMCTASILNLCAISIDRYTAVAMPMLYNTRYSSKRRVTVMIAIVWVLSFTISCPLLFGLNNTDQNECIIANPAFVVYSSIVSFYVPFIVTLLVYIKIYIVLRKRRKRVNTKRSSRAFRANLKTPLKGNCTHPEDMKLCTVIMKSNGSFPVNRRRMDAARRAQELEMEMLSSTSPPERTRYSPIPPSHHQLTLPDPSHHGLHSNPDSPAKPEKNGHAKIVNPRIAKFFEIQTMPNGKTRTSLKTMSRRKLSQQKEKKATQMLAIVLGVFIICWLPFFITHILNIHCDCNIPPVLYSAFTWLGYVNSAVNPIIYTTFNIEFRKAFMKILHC

Consider `CCN1CCC[C@@H]1CNC(=O)c1cc(I)ccc1OC` [(R)-II], for which the IC50 amounted to 169 nM at D-2 receptor [1] and 146 nM at D-2 receptor [2].
`CCN1CCC[C@H]1CNC(=O)c1cc(I)ccc1OC` [(S)-II, (S)-N-[(1-ethyl-2-pyrrolidinyl)methyl]-5-iodo-2-methoxybenzamide]: the IC50 at D-2 receptor [1] worked out at 5 nM.
For the compound `CCN1CCC[C@H]1CNC(=O)c1cc([125I])ccc1OC` [Example 1], the “maximal number of binding sites” value at D-2 receptor [3] (Scatchard analysis of the saturation isotherm, rat striatal membranes) was 169 fmol/mg protein. On D-2 receptor [3] (Scatchard analysis of the saturation isotherm, single set of binding sites, rat striatal membranes), this compound returned a Kd of 1 nM. For the same compound, on D-2 receptor [3] (setting [4]), the “time binding remained stable” value is “at least 60 min” and the “time for binding to reach equilibrium” value was ≤ 20 min. The “character of binding to rat striated membranes” value at D-2 receptor [3] (conditions of the receptor binding assay) was “saturable, reversible and stereospecific”.

(Values after patent publication EP0317873B1, “Radioiodinated benzamides and method of their use as radioimaging agents” (THE VANDERBILT UNIVERSITY, priority 1987, dated 1989).)
